Paper PMC7932080, “In vitro study of Hesperetin and Hesperidin as inhibitors of zika and chikungunya virus proteases” (PLoS ONE, 2021)
Several values for one entry are separate records, joined by “and”; a condition that tells them apart may be missing. Identical values can stand only once. Like-named read-outs stand apart in the source and are kept apart here.

Biological target: ZIKV NS2B/NS3^pro (Zika virus, UniProt A0A024B7W1)
Experiment: ZIKV NS2B/NS3^pro inhibition assay, fluorogenic substrate Pyr-Arg-Thr-Lys-Arg-AMC

Chain of ZIKV NS2B/NS3^pro (A0A024B7W1 1425-1464): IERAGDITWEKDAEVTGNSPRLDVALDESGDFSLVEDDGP
Chain of ZIKV NS2B/NS3^pro (A0A024B7W1 1503-1680): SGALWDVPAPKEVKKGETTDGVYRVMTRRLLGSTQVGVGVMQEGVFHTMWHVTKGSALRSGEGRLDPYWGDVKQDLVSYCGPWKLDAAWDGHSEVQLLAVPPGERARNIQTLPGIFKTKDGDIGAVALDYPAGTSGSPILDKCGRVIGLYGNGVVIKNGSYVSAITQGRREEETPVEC

Structure (SMILES): COc1ccc(C2CC(=O)c3c(O)cc(O)cc3O2)cc1O (stereo not drawn) [HST, 3’,5,7-trihydroxy-4’-methoxyflavanone]
- inhibition at 10 µM (HST 10 µM, replicates A-C): 22%
- % activity (HST 20 µM, replicates A-C): 59% and 63%
- % inhibition (HST 20 µM, replicates A-C): 41% and 37%
- activity at 20 µM (HST 20 µM, replicates A-C): 60%
- inhibition at 20 µM (HST 20 µM, replicates A-C): 40%
- Activity, mean (HST 30 µM, mean n=3): 43.6667%
- % activity (HST 30 µM, replicates A-C): 45%
- % inhibition (HST 30 µM, replicates A-C): 55%
- activity at 30 µM (HST 30 µM, replicates A-C): 43%
- inhibition at 30 µM (HST 30 µM, replicates A-C): 57%
- Activity, mean (HST 40 µM, mean n=3): 35.6667%
- % activity (HST 40 µM, replicates A-C): 36%
- % inhibition (HST 40 µM, replicates A-C): 64%
- activity at 40 µM (HST 40 µM, replicates A-C): 35%
- inhibition at 40 µM (HST 40 µM, replicates A-C): 65%
- Activity, mean (HST 50 µM, mean n=3): 24.3333%
- % activity (HST 50 µM, replicates A-C): 26% and 24%
- % inhibition (HST 50 µM, replicates A-C): 74% and 76%
- activity at 50 µM (HST 50 µM, replicates A-C): 23%
- inhibition at 50 µM (HST 50 µM, replicates A-C): 77%
- Activity, mean (HST 60 µM, mean n=3): 15.3333%
- % activity (HST 60 µM, replicates A-C): 14% and 17%
- % inhibition (HST 60 µM, replicates A-C): 86% and 83%
- activity at 60 µM (HST 60 µM, replicates A-C): 15%
- inhibition at 60 µM (HST 60 µM, replicates A-C): 85%
- Activity, mean (HST 70 µM, mean n=3): 10.6667%
- % activity (HST 70 µM, replicates A-C): 11%
- % inhibition (HST 70 µM, replicates A-C): 89%
- activity at 70 µM (HST 70 µM, replicates A-C): 10%
- inhibition at 70 µM (HST 70 µM, replicates A-C): 90%
- Activity, mean (HST 80 µM, mean n=3): 6.333%
- % activity (HST 80 µM, replicates A-C): 6% and 8%
- % inhibition (HST 80 µM, replicates A-C): 94% and 92%
- activity at 80 µM (HST 80 µM, replicates A-C): 5%
- inhibition at 80 µM (HST 80 µM, replicates A-C): 95%
- Activity, mean (HST 90 µM, mean n=3): 2%
- % activity (HST 90 µM, replicates A-C): 2% and 1% and 3%
- % inhibition (HST 90 µM, replicates A-C): 99% and 97%
- inhibition at 90 µM (HST 90 µM, replicates A-C): 98%
- Activity, mean (HST 100 µM, mean n=3): 0.7667%
- % activity (HST 100 µM, replicates A-C): 0.5% and 1%
- % inhibition (HST 100 µM, replicates A-C): 99.5% and 99%
- activity at 100 µM (HST 100 µM, replicates A-C): 0.8%
- inhibition at 100 µM (HST 100 µM, replicates A-C): 99.2%
- Activity, mean (HST 1 (µM), mean n=3): 95%
- Activity, mean (HST 5 (µM), mean n=3): 86.3333%
- Activity, mean (HST 10 (µM), mean n=3): 78.6667%
- Activity, mean (HST 20 (µM), mean n=3): 60.6667%
- Activity, mean (HST 120 (µM), mean n=3): 0.1667%
- Inhibition, mean (HST 120 (µM), mean n=3): 99.8333%
- % activity (HST 120 (µM), replicates A-C): 0.1%
- inhibition at 120 µM (HST 120 (µM), replicates A-C): 99.9%
- Activity, mean (HST 140 (µM), mean n=3): 0%
- inhibition at 140 µM (HST 140 (µM), replicates A-C): 100%
- IC50 (IC50, single replicate, single replicates A, B, C): 14.3 µM (2×) and 12.6 µM (2×) and 11 µM (2×)
- Inhibition mode (Lineweaver-Burk plot): noncompetitive
- IC50 (Log conc nM (IC50 determination triplicate), single replicates A, B, C): 14300 nM and 12600 nM and 11000 nM
- IC50 (pIC50, from IC50 by online tool): 12600 nM
- remaining activity at 140 µM (read-out: % activity, HST 140 (µM), replicates A-C): 0%
- inhibition at 20 µM (read-out: Inhibition of protease activity, preliminary inhibition test, compound 20 µM): ~40%
- inhibition at 1 µM (read-out: Inhibition, mean, HST 1 µM, mean n=3): 5%
- inhibition at 5 µM (read-out: Inhibition, mean, HST 5 µM, mean n=3): 13.7%
- inhibition at 10 µM (read-out: Inhibition, mean, HST 10 µM, mean n=3): 21.3%
- inhibition at 20 µM (read-out: Inhibition, mean, HST 20 µM, mean n=3): 39.3%
- inhibition at 30 µM (read-out: Inhibition, mean, HST 30 µM, mean n=3): 56.3%
- inhibition at 40 µM (read-out: Inhibition, mean, HST 40 µM, mean n=3): 64.3%
- inhibition at 50 µM (read-out: Inhibition, mean, HST 50 µM, mean n=3): 75.7%
- inhibition at 60 µM (read-out: Inhibition, mean, HST 60 µM, mean n=3): 84.7%
- inhibition at 70 µM (read-out: Inhibition, mean, HST 70 µM, mean n=3): 89.3%
- inhibition at 80 µM (read-out: Inhibition, mean, HST 80 µM, mean n=3): 93.7%
- inhibition at 90 µM (read-out: Inhibition, mean, HST 90 µM, mean n=3): 98%
- inhibition at 100 µM (read-out: Inhibition, mean, HST 100 µM, mean n=3): 99.2%
